# According to patent US11072588B2, “Barbituric acid derivatives comprising cationic and lipophilic groups” (UNIVERSITETET I TROMSØ—NORGES ARKTISKE UNIVERSITET, priority 2017, dated 2021):
# Like-named read-outs stand apart in the source and are kept apart here.
# What was measured:
# [1] = system: human metastatic melanoma (A2058, ATCC CRL-11147) cells; experiment: Anti-cancer activity against A2058 cells; format: cell-based; conditions: A2058, read-out: Anti-cancer IC50
# Method: Cytotoxicity of the test compounds was evaluated after 72 hour exposure to human metastatic melanoma (A2058, ATCC CRL-11147) cells.
# A2058 cells were grown overnight (2,000 cells/well), and then incubated with the test compounds (range of concentrations) diluted in MEM Earle's supplemented with gentamycin (10 μg/mL), non-essential amino acids (1%), sodium pyruvate (1 mM), L-alanyl-Lglutamine (2 mM), but without FBS (total volume was 100 μl) for […]. Ten μL of CellTiter 96® AQueous One Solution Reagent (Promega, Madison, Wis., USA) was added, and the plates were then further incubated for 1 hour.
# Absorbance was measured at 485 nm in a DTX 880 Multimode Detector. Results were calculated as % survival compared to negative (assay media) and positive (Triton X-100; Sigma-Aldrich) controls.
# [2] = Determination of haemolytic activity; format: cell-based; conditions: human red blood cells (washed, from heparinized fresh blood); human RBCs, 1 h, 37° C.; read-out: RBC: haemolytic activity against human RBCs (EC50)
# Method: Hemolysis was determined using a heparinized fraction (1000 IU/mL) of freshly drawn blood. Blood collected in EDTA containing test tubes (Vacutest®, KIMA, Arzergrande, Italy) was used for determination of the hematocrit (hct). The heparinized blood was washed 3× with pre-warmed PBS and adjusted to a final hct of 4%. Derivatives in DMSO (50 mM) were added to a 96-well polypropylene V-bottom plate (NUNC, Fisher Scientific, Oslo, Norway) and serially diluted. The test concentration range was 500-4 μM with DMSO contents ≤1%. A solution of 1% triton X-100 was used as positive control for 100% hemolysis. As negative control a solution of 1% DMSO in PBS buffer was included. No signs of DMSO toxicity were detected. RBCs (1% v/v final concentration) were added to the well plate and incubated at 37° C. and 800 rpm for 1 h. After centrifugation (5 min, 3000 g), 100 μL of each well were transferred to a 96-well flat bottom plate and absorbance was measured at 545 nm with a microplate reader (VersaMax™, Molecular Devices, Sunnyvale, Calif., USA). The percentage of hemolysis was calculated as the ratio of the absorbance in the derivative-treated and surfactant treated samples, corrected for the PBS background. Three independent experiments were performed and EC50 values are presented as averages.
# [3] = system: A. baumanii K12-21; experiment: MIC, multi-resistant clinical isolate; format: cell-based, Acinetobacter baumannii; conditions: for MIC: Acinetobacter baumannii, K1221, read-out: Antimicrobial activity (MIC); for selectivity index (EC50/MIC): RBC EC50 / MIC
# Method: (§1) Working solutions of the test derivatives were prepared with up to 100% DMSO and stored at −20° C. If necessary, the solutions were heated to 40-80° C. before testing to facilitate complete dissolution. Double-distilled water was used in all dilutions prepared. […] A microdilution susceptibility test was used for MIC determination according to Clinical and Laboratory Standards Institute, “Methods for Dilution Antimicrobial Sisceptibility Tests for Bacteria That Graw Aerobically”, Approved Standard M07-A9, edition 2012, with modifications as described by Igumnova et al (Bioorg Med Chem, 2016, 24 (22), 5884-5894).
# (§2) Briefly, the bacterial inoculum was adjusted to approximately 2.5-3×10^4 cells/mL in Mueller-Hinton broth (MHB, Difco Laboratories, USA), and incubated in a ratio of 1:1 with test derivatives in polystyrene 96-well flat-bottom microplates (NUNC, Roskilde, Denmark). Positive growth control (without test derivatives) and negative control (without bacteria) were included. The reference antibiotic was oxytetracycline hydrochloride (Sigma Aldrich, Saint Louis, Mo., USA). The microplates were incubated in an EnVision microplate reader (Perkin-Elmer, Turku, Finland) placed in an incubator set to 35° C. for 48 h. The MIC value was defined as the lowest concentration of derivative resulting in no bacterial growth as determined by OD600 measurement. All derivatives were tested in three parallels.
# (§3) The MIC was determined as explained above with some exceptions; working solutions of test derivatives were prepared from concentrated DMSO stocks stored at room temperature, the density of the bacterial inoculum was increased 40× to 1-1.2×10^6 cells/mL, enterococci were incubated in Brain Heart Infusion broth (BHIB, Difco Laboratories, USA), the microplates were incubated for 24 h, and the derivatives were tested in four parallels.
# [4] = system: A. baumanii K44-35; experiment: MIC, multi-resistant clinical isolate; format: cell-based, Acinetobacter baumannii; conditions: for MIC: Acinetobacter baumannii, K4435, read-out: Antimicrobial activity (MIC); for selectivity index (EC50/MIC): RBC EC50 / MIC
# Method: as §1, §2, §3
# [5] = system: A. baumanii K47-42; experiment: MIC, multi-resistant clinical isolate; format: cell-based, Acinetobacter baumannii; conditions: for MIC: Acinetobacter baumannii, K4742, read-out: Antimicrobial activity (MIC); for selectivity index (EC50/MIC): RBC EC50 / MIC
# Method: as §1, §2, §3
# [6] = system: A. baumanii K63-58; experiment: MIC, multi-resistant clinical isolate; format: cell-based, Acinetobacter baumannii; conditions: A. baumanii K63-58, resistant to colistin; for MIC: Acinetobacter baumannii, K6358, 24 h, read-out: Antimicrobial activity (MIC); for selectivity index (EC50/MIC): RBC EC50 / MIC
# Method: as §1, §2, §3
# [7] = system: A. baumanii K55-13; experiment: MIC, multi-resistant clinical isolate; format: cell-based, Acinetobacter baumannii; conditions: for MIC: Acinetobacter baumannii, K5513, read-out: Antimicrobial activity (MIC); for selectivity index (EC50/MIC): RBC EC50 / MIC
# Method: as §1, §2, §3
# [8] = system: panel of 30 multi-resistant clinical isolates of Gram-positive and Gram-negative bacteria; experiment: MIC screening, ranges over the panel of clinical isolates; format: cell-based; conditions: read-out: MIC values against S. aurues, E. faecium and E. coli
# Method: as §1, §2, §3
# [9] = system: K. pneumoniae K47-25; experiment: MIC, multi-resistant clinical isolate; format: cell-based, Klebsiella pneumoniae; conditions: for MIC: Klebsiella pneumoniae, K4725, 24 h, read-out: Antimicrobial activity (MIC); for selectivity index (EC50/MIC): RBC EC50 / MIC
# [10] = system: E. faecium K36-18; experiment: MIC, multi-resistant clinical isolate; format: cell-based, Enterococcus faecium; conditions: for MIC: Enterococcus faecium, K3618, read-out: Antimicrobial activity (MIC); for selectivity index (EC50/MIC): RBC EC50 / MIC, E. faecium K36-18
# Method: as §1, §2, §3
# [11] = system: E. faecium 50901530; experiment: MIC, multi-resistant clinical isolate; format: cell-based, Enterococcus faecium; conditions: for MIC: Enterococcus faecium, read-out: Antimicrobial activity (MIC); for selectivity index (EC50/MIC): RBC EC50 / MIC
# Method: as §1, §2, §3
# [12] = system: E. faecium 50758899; experiment: MIC, multi-resistant clinical isolate; format: cell-based, Enterococcus faecium; conditions: for MIC: Enterococcus faecium, read-out: Antimicrobial activity (MIC); for selectivity index (EC50/MIC): RBC EC50 / MIC
# Method: as §1, §2, §3
# [13] = system: E. faecium 50673722; experiment: MIC, multi-resistant clinical isolate; format: cell-based, Enterococcus faecium; conditions: for MIC: Enterococcus faecium, read-out: Antimicrobial activity (MIC); for selectivity index (EC50/MIC): RBC EC50 / MIC
# Method: as §1, §2, §3
# [14] = system: E. faecium TUH50-22; experiment: MIC, multi-resistant clinical isolate; format: cell-based, Enterococcus faecium; conditions: for MIC: Enterococcus faecium, TUH5022, read-out: Antimicrobial activity (MIC); for selectivity index (EC50/MIC): RBC EC50 / MIC
# Method: as §1, §2, §3
# [15] = K. pneumoniae K47-25, resistant to colistin
Compound,IC50 [1],EC50 at 1 h [2],MIC [3],selectivity index (EC50/MIC) [3],MIC [4],selectivity index (EC50/MIC) [4],MIC [5],selectivity index (EC50/MIC) [5],MIC [6],selectivity index (EC50/MIC) [6],MIC [7],selectivity index (EC50/MIC) [7],MIC [10],selectivity index (EC50/MIC) [10],MIC [11],selectivity index (EC50/MIC) [11],MIC [12],selectivity index (EC50/MIC) [12],MIC [13],selectivity index (EC50/MIC) [13],also measured
NCCCCN1C(=O)N(CCCCN)C(=O)C(Cc2cc(Br)cc(Br)c2)(Cc2cc(Br)cc(Br)c2)C1=O [7(ii)],1 µg/mL,83 µg/mL,16 µg/mL,(5),16 µg/mL,(5),16 µg/mL,(5),16 µg/mL,(5),16 µg/mL,(5),8 µg/mL,(10),4 µg/mL,(21),4 µg/mL,(21),4 µg/mL,(21),"MIC [8]: 4 to 8 µg/mL; MIC [9]: 16 µg/mL; selectivity index (EC50/MIC) [9, 15]: (5)"
NCCCCN1C(=O)N(CCCCN)C(=O)C(Cc2cc(C(F)(F)F)cc(C(F)(F)F)c2)(Cc2cc(C(F)(F)F)cc(C(F)(F)F)c2)C1=O [7(vi)],,183 µg/mL,16 µg/mL,(11),32 µg/mL,(6),32 µg/mL,(6),32 µg/mL,(6),32 µg/mL,(6),16 µg/mL,(11),8 µg/mL,(23),16 µg/mL,(11),8 µg/mL,(23),MIC [9]: > 32 µg/mL; MIC [14]: 8 µg/mL; selectivity index (EC50/MIC) [14]: (23)
"CC(C)(C)c1cc(CC2(Cc3cc(C(C)(C)C)cc(C(C)(C)C)c3)C(=O)N(CCCCNC(=N)N)C(=O)N(CCCCNC(=N)N)C2=O)cc(C(C)(C)C)c1 [8(iii), 1,1′-(4,4′-(5,5-bis(3,5-di-tert-butylbenzyl)-2,4,6-trioxodihydropyrimidine-1,3(2H,4H)-diyl)bis(butane-4,1-diyl))-diguanidine]",33 µg/mL,< 4 µg/mL,4 µg/mL,(<1),4 µg/mL,(<1),4 µg/mL,(<1),4 µg/mL,(<1),4 µg/mL,(<1),2 µg/mL,(<2),2 µg/mL,(<2),2 µg/mL,(<2),2 µg/mL,(<2),"MIC [9, 15]: 16 µg/mL; selectivity index (EC50/MIC) [9, 15]: (<0.25); MIC [14]: 2 µg/mL; selectivity index (EC50/MIC) [14]: (<2)"
"CC(C)(C)c1ccc(CC2(Cc3ccc(C(C)(C)C)cc3)C(=O)N(CCCCN)C(=O)N(CCCCN)C2=O)cc1 [Compound 7(i), 1,3-bis(4-aminobutyl)-5,5-bis(4-tertbutylbenzyl) pyrimidin-2,4,6(1H,3H,5H)-trione]",1 µg/mL,143 µg/mL,16 µg/mL,(9),32 µg/mL,(4),16 µg/mL,(9),16 µg/mL,(9),16 µg/mL,(9),8 µg/mL,(18),4 µg/mL,(36),8 µg/mL,(18),8 µg/mL,(18),MIC [9]: > 32 µg/mL; MIC [14]: 8 µg/mL; selectivity index (EC50/MIC) [14]: (18)
